From patent US6977262B2, “Dihydropyrazolopyridine compounds and pharmaceutical use thereof” (Mitsubishi Pharma Corporation, priority 2001, dated 2005)

| SMILES | melting point [°C] |
| --- | --- |
| N#CC1=C(c2ccccc2)Nc2n[nH]cc2C1c1cccc2ccccc12 (stereo not shown) [Example 146, 5-Cyano-4,7-dihydro-4-(naphthalen-1-yl)-6-phenyl-2H-pyrazolo[3,4-b]pyridine] | 174 |
| N#CC1=C(c2ccccc2)Nc2n[nH]cc2C1c1cccc(C#N)c1Br (stereo not shown) [Example 147, 4-(2-Bromo-3-cyanophenyl)-5-cyano-4,7-dihydro-6-phenyl-2H-pyrazolo[3,4-b]pyridine] | > 270 |
| N#CC1=C(c2ccccc2)Nc2n[nH]cc2C1c1cccc2c1OCCC2 (stereo not shown) [Example 148, 5-Cyano-4-(3,4-dihydro-2H-benzopyran-8-yl)-4,7-dihydro-6-phenyl-2H-pyrazolo[3,4-b]pyridine] | 255 |
| N#CC1=C(c2ccccc2)Nc2n[nH]cc2C1c1cccc(F)c1F (stereo not shown) [Example 149, 5-Cyano-4-(2,3-difluorophenyl)-4,7-dihydro-6-phenyl-2H-pyrazolo[3,4-b]pyridine] | 165 |
| COc1ccccc1C1C(C#N)=C(c2ccccc2)Nc2n[nH]cc21 (stereo not shown) [Example 150, 5-Cyano-4,7-dihydro-4-(2-methoxyphenyl)-6-phenyl-2H-pyrazolo[3,4-b]pyridine] | 206 |
| COc1ccccc1C1=C(C#N)C(c2ccccc2OC)c2c[nH]nc2N1 (stereo not shown) [Example 151, 5-Cyano-4,7-dihydro-4,6-bis-(2-methoxyphenyl)-2H-pyrazolo[3,4-b]pyridine] | 220 |
| COc1cccc(C2=C(C#N)C(c3ccccc3OC)c3c[nH]nc3N2)c1 (stereo not shown) [Example 152, 5-Cyano-4,7-dihydro-4-(2-methoxyphenyl)-6-(3-methoxyphenyl)-2H-pyrazolo[3,4-b]pyridine] | 192 |
| COc1ccc(C2=C(C#N)C(c3ccccc3OC)c3c[nH]nc3N2)cc1 (stereo not shown) [Example 153, 5-Cyano-4,7-dihydro-4-(2-methoxyphenyl)-6-(4-methoxyphenyl)-2H-pyrazolo[3,4-b]pyridine] | 149 |
| N#CC1=C(c2ccccc2)Nc2n[nH]cc2C1c1ccccc1[N+](=O)[O-] (stereo not shown) [Example 154, 5-Cyano-4,7-dihydro-4-(2-nitrophenyl)-6-phenyl-2H-pyrazolo[3,4-b]pyridine] | 221 |
| COc1ccccc1C1=C(C#N)C(c2ccccc2[N+](=O)[O-])c2c[nH]nc2N1 (stereo not shown) [Example 155, 5-Cyano-4,7-dihydro-6-(2-methoxyphenyl)-4-(2-nitrophenyl)-2H-pyrazolo[3,4-b]pyridine] | 207 |
| COc1cccc(C2=C(C#N)C(c3ccccc3[N+](=O)[O-])c3c[nH]nc3N2)c1 (stereo not shown) [Example 156, 5-Cyano-4,7-dihydro-6-(3-methoxyphenyl)-4-(2-nitrophenyl)-2H-pyrazolo[3,4-b]pyridine] | 220 |
| COc1ccc(C2=C(C#N)C(c3ccccc3[N+](=O)[O-])c3c[nH]nc3N2)cc1 (stereo not shown) [Example 157, 5-Cyano-4,7-dihydro-6-(4-methoxyphenyl)-4-(2-nitrophenyl)-2H-pyrazolo[3,4-b]pyridine] | 215 |
| N#CC1=C(c2ccccc2)Nc2n[nH]cc2C1c1cccc2nonc12 (stereo not shown) [Example 158, 4-(2,1,3-Benzoxadiazol-4-yl)-5-cyano-4,7-dihydro-6-phenyl-2H-pyrazolo[3,4-b]pyridine] | 231 |
| COc1ccccc1C1=C(C#N)C(c2cccc3nonc23)c2c[nH]nc2N1 (stereo not shown) [Example 159, 4-(2,1,3-Benzoxadiazol-4-yl)-5-cyano-4,7-dihydro-6-(2-methoxyphenyl)-2H-pyrazolo[3,4-b]pyridine] | 180 |
| COc1cccc(C2=C(C#N)C(c3cccc4nonc34)c3c[nH]nc3N2)c1 (stereo not shown) [Example 160, 4-(2,1,3-Benzoxadiazol-4-yl)-5-cyano-4,7-dihydro-6-(3-methoxyphenyl)-2H-pyrazolo[3,4-b]pyridine] | 198 |
| COc1ccc(C2=C(C#N)C(c3cccc4nonc34)c3c[nH]nc3N2)cc1 (stereo not shown) [Example 161, 4-(2,1,3-Benzoxadiazol-4-yl)-5-cyano-4,7-dihydro-6-(4-methoxyphenyl)-2H-pyrazolo[3,4-b]pyridine] | 244 |
| N#CC1=C(c2ccccc2)Nc2n[nH]cc2C1c1cccc2nsnc12 (stereo not shown) [Example 162, 4-(2,1,3-Benzothiadiazol-4-yl)-5-cyano-4,7-dihydro-6-phenyl-2H-pyrazolo[3,4-b]pyridine] | 258 |
| COc1ccccc1C1=C(C#N)C(c2cccc3nsnc23)c2c[nH]nc2N1 (stereo not shown) [Example 163, 4-(2,1,3-Benzothiadiazol-4-yl)-5-cyano-4,7-dihydro-6-(2-methoxyphenyl)-2H-pyrazolo[3,4-b]pyridine] | 231 |
| COc1cccc(C2=C(C#N)C(c3cccc4nsnc34)c3c[nH]nc3N2)c1 (stereo not shown) [Example 164, 4-(2,1,3-Benzothiadiazol-4-yl)-5-cyano-4,7-dihydro-6-(3-methoxyphenyl)-2H-pyrazolo[3,4-b]pyridine] | 220 |
| COc1ccc(C2=C(C#N)C(c3cccc4nsnc34)c3c[nH]nc3N2)cc1 (stereo not shown) [Example 165, 4-(2,1,3-Benzothiadiazol-4-yl)-5-cyano-4,7-dihydro-6-(4-methoxyphenyl)-2H-pyrazolo[3,4-b]pyridine] | 238 |
| N#CC1=C(c2ccncc2)Nc2n[nH]cc2C1c1cccc2nonc12 (stereo not shown) [Example 166, 4-(2,1,3-Benzoxadiazol-4-yl)-5-cyano-4,7-dihydro-6-(pyridin-4-yl)-2H-pyrazolo[3,4-b]pyridine] | 236 |
| N#CC1=C(c2cccc3ccccc23)Nc2n[nH]cc2C1c1cccc2nonc12 (stereo not shown) [Example 169, 4-(2,1,3-Benzoxadiazol-4-yl)-5-cyano-4,7-dihydro-6-(naphthalen-1-yl)-2H-pyrazolo[3,4-b]pyridine] | 213 |
| N#CC1=C(c2ccco2)Nc2n[nH]cc2C1c1cccc2nonc12 (stereo not shown) [Example 170, 4-(2,1,3-Benzoxadiazol-4-yl)-5-cyano-6-(furan-2-yl)-4,7-dihydro-2H-pyrazolo[3,4-b]pyridine] | 241 |
| N#CC1=C(c2cccs2)Nc2n[nH]cc2C1c1cccc2nonc12 (stereo not shown) [Example 171, 4-(2,1,3-Benzoxadiazol-4-yl)-5-cyano-4,7-dihydro-6-(thiophen-2-yl)-2H-pyrazolo[3,4-b]pyridine] | 230 |
| N#CC1=C(c2ccc3ccccc3c2)Nc2n[nH]cc2C1c1cccc2nonc12 (stereo not shown) [Example 172, 4-(2,1,3-Benzoxadiazol-4-yl)-5-cyano-4,7-dihydro-6-(naphthalen-2-yl)-2H-pyrazolo[3,4-b]pyridine] | 228 |
| N#CC1=C(c2ccco2)Nc2n[nH]cc2C1c1cccc2nonc12 (stereo not shown) [Example 173, 4-(2,1,3-Benzoxadiazol-4-yl)-5-cyano-6-(furan-2-yl)-4,7-dihydro-2H-pyrazolo[3,4-b]pyridine] | 237 |
| N#CC1=C(c2ccsc2)Nc2n[nH]cc2C1c1cccc2nonc12 (stereo not shown) [Example 174, 4-(2,1,3-Benzoxadiazol-4-yl)-5-cyano-4,7-dihydro-6-(thiophen-3-yl)-2H-pyrazolo[3,4-b]pyridine] | 242 |
| N#CC1=C(c2cc3ccccc3o2)Nc2n[nH]cc2C1c1cccc2nonc12 (stereo not shown) [Example 175, 6-(Benzo[b]furan-2-yl)-4-(2,1,3-benzoxadiazol-4-yl)-5-cyano-4,7-dihydro-2H-pyrazolo[3,4-b]pyridine] | > 270 |
